Results on nine molecules are retold here after patent US20250376659A1, “DERIVATION OF SOMATOTROPHS FROM STEM CELLS AND USES THEREOF” (MEMORIAL SLOAN-KETTERING CANCER CENTER, priority 2017, published 2025).

One experiment relates to Human ES or iPS cells. The experiment can be described thus: Marker gene expression during step-wise differentiation of human pluripotent stem cells to somatotrophs. It counts as cell-based. The following applies: for PIT1 expression: FIG. 4, FIG. 5, FIG. 16; for PIT1 expression / GH1 expression: compared with the control group; for GH1 expression: FIG. 6, 7A, 7B, 16. The method, then: Human ES or iPS cells were expanded in E8 media on matrigel.
On day 0, cells were changed to E6 media where BMP4 (5 ng/ml) and SB43152 (10 μM) were added, with daily medium and factors change.
On day 3, BMP4 was removed and the following factors added: FGF8 (100 ng/ml); FGF10 (50 ng/ml); FGF18 (50 ng/ml); Sonic hedgehog (SHH) (100 ng/ml) or SAG (Smoothened Agonist) (100 nM); LDN193189 (250 nM). Media and factors were changed every other day.
Media and factors are changed every other day.
(§1) On day 15, the following factors were used: Retinoic acid (1 μM); Thyroid hormone T3 (10 nM); Dexamethasone (1 μM); cyclic AMP (100 μg/ml); DPN (0.1 nM); Growth Hormone Releasing Hormone (GHRH) (1 μM). Media and factors were changed every other day.
On day 29, the cells entered the maturation phase and could be maintained in the same factors for a variable period ranging from 1-4 weeks. […] They could be subjected to FACS sorting for GHRH in order to obtain a pure cell population of somatotrophs. Cells remained on matrigel for the duration of the protocol.
In order to derive GH cells, the strategy was to first differentiate human pluripotent stem cells to pre-placodal ectoderm and anterior pituitary progenitors. The cells were further differentiated to PROP1 lineage, and then to PIT1 lineage. The cells were then terminally differentiated to GH cells. The step-wise protocol to differentiate pluripotent stem cells into growth hormone secreting cells involved promoting Prop1 expression in anterior pituitary progenitors, activating POU1F1 (PIT1), directing cell differentiation to growth hormone expressing cells. The growth hormone expressing cells were also further matured via prolonged incubation. The key markers to monitor the process of differentiation comprised Prop1, POU1F1 (PIT1), GH and GHRHR.
For example, the first step was to induce non-neural ectoderm by BMP4 and inhibitor of TGF-β/Activin/NODAL pathway (e.g., SB431542). Then the cells were subjected to inhibitor of TGF-β/Activin/NODAL pathway (e.g., SB431542), FGF8/10/18, SHH agonist (e.g., SHH), and a SMAD inhibitor (e.g., LDN 193189) to induce anterior pituitary progenitors, which were characterized by PITX1/2, LHX3/4 and PROP1 expression.
For selective differentiation to somatotrophs, retinoic acid were used to suppress POMC expressed by corticotrophs and to promote GH1 expression which is expressed by somatotrophs. In addition, the corticosteroid (e.g., Dexamethasone) and thyroid hormone (e.g., T3) were added to the medium to inhibit PRL (expressed by lactotroph) and TSH (expressed by thyrotroph), while promoting GH1 expression.

The subject of a further experiment is somatotrophs. The experiment is described as follows: GHRH stimulation of stem-cell-derived GH cell population. It is filed as cell-based, human. The following applies: cell population after growth hormone induction, FIG. 8 lower right panel. The method, then:
as §1
On day 29, the cells entered the maturation phase and could be maintained in the same factors for a variable period ranging from 1-4 weeks. Cells at this stage expressed GHRH receptors (GHRHR). They could be subjected to FACS sorting for GHRH in order to obtain a pure cell population of somatotrophs. Cells remained on matrigel for the duration of the protocol.
After this step, the majority population in culture were somatotrophs which expressed the somatotroph marker GH1 and secreted growth hormone in the supernatant. The phenotype of the population is shown FIG. 8. The cell population expressed high amount of GH and GHRHR, and low amount of TSH, PRL and LH. GH expression was further increased upon GHRH stimulation (FIG. 8, lower right panel).

The next experiment deals with rodent GSK3β homologs. The following applies: cited from earlier work.

“Also recorded” adds a separate entry of the source. No end group written: not given here.

As to IL 6: interleukin, in the experiment with Human ES or iPS cells, the PIT1 expression entry is recorded as “increased” and the GH1 expression result is listed as “increased”.
As for “GHRH: Growth Hormone Releasing Hormone, GHRH signaling pathway agonist (YADAIFTNSYRKVLGQLSARKLLQDIMSRQQGESNQERGARARL; ends and bridges not checked; UniProt P01286 32-75, looked up)”, the GH1 expression entry in the experiment on Human ES or iPS cells is given as “significantly increased; also recorded: further promoted”. Further, in the experiment with somatotrophs, the “GH expression upon GHRH stimulation” value is reported as “increased”.
Turning to `C[C@]12C[C@H](O)[C@H]3[C@@H](CCC4=CC(=O)CC[C@@]43C)[C@@H]1CC[C@@H]2C(=O)CO` [corticosterone, reference compound], in the experiment with Human ES or iPS cells (FIG. 7D, p-value<0.01 compared with the control groups), the PRL expression entry is listed as “significantly reduced”.
In the case of `N#CC(Cc1ccc(O)cc1)c1ccc(O)cc1` (stereo not drawn) [DPN, 2,3-bis(4-hydroxyphenyl) propionitrile, reference compound], the GH1 expression entry with Human ES or iPS cells is given as “further promoted”.
For the molecule `Cc1c[nH]c(-c2cnc(NCCNc3ccc(C#N)cn3)nc2-c2ccc(Cl)cc2Cl)n1` [CHIR99021, 6-(2-(4-(2,4-dichlorophenyl)-5-(4-methyl-1H-imidazol-2-yl)pyrimidin-2-ylamino)ethylamino) nicotinonitrile, reference compound], the PIT1 expression result in the experiment with Human ES or iPS cells is “induce”. In addition, in the experiment with rodent GSK3β homologs, the “IC50 values against rodent GSK3β homologs” value is reported as “nanomolar”.
For the molecule `N[C@@H](Cc1cc(I)c(Oc2ccc(O)c(I)c2)c(I)c1)C(=O)O` [T3, reference compound], in the experiment on Human ES or iPS cells (FIG. 7C, p-value<0.01 compared with the control groups), the TSH-β expression entry is “significantly reduced”.
Regarding “Ghrelin: Ghrelin signaling pathway agonist (GSSFLSPEHQRVQQRKESKKPPAKLQPR; ends and bridges not checked; UniProt Q9UBU3 24-51, looked up)”, the GH1 expression result with Human ES or iPS cells is reported as “promoting”.

B1: IL10: interleukin (protein, UniProt P22301 19-178, looked up)
Interleukin-10: SPGQGTQSENSCTHFPGNLPNMLRDLRDAFSRVKTFFQMKDQLDNLLLKESLLEDFKGYLGCQALSEMIQFYLEEVMPQAENQDPDIKAHVNSLGENLKTLRLRLRRCHRFLPCENKSKAVEQVKNAFNKLQEKGIYKAMSEFDIFINYIEAYMTMKIRN
Regarding B1, in the experiment with Human ES or iPS cells, the PIT1 expression result is recorded as “increased” and the GH1 expression entry is listed as “increased”.

B2: FGF8: activator of FGF signaling, dorsalizing agent (protein, UniProt P55075 23-233, looked up)
Fibroblast growth factor 8: QEGPGRGPALGRELASLFRAGREPQGVSQQHVREQSLVTDQLSRRLIRTYQLYSRTSGKHVQVLANKRINAMAEDGDPFAKLIVETDTFGSRVRVRGAETGLYICMNKKGKLIAKSNGKGKDCVFTEIVLENNYTALQNAKYEGWYMAFTRKGRPRKGSKTRQHQREVHFMKRLPRGHHTTEQSLRFEFLNYPPFTRSLRGSQRTWAPEPR
B2: in the experiment with Human ES or iPS cells (FIG. 3, FIG. 5), the PROP1 expression entry was “maintained”. The PIT1 expression result in the experiment with Human ES or iPS cells was “downregulated”. Further, in the experiment with Human ES or iPS cells (FIG. 5), the POMC expression entry was “upregulated”.
